We go through 17 molecules from patent publication US20090215805A1, “4-Heteroaryl Pyrimidine Derivatives and use thereof as Protein Kinase Inhibitors” (Cyclacel Limited, priority 2005, published 2009).

Some results are limits rather than exact numbers.

Chain of DM Aur A (Dm AK-A) (Q9VGF9 entry or part of it): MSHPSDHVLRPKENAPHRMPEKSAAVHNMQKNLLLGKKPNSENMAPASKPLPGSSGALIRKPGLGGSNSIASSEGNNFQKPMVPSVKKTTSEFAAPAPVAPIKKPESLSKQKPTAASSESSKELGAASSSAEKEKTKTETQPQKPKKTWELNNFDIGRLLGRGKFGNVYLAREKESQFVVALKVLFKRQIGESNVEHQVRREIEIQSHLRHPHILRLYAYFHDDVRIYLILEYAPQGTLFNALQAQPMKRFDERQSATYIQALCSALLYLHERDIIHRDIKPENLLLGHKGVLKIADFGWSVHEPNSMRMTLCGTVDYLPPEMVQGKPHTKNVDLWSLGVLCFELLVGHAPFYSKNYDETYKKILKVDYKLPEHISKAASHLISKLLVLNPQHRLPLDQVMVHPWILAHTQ

The target of one data set is DM Aur A (Dm AK-A) (Drosophila melanogaster, UniProt Q9VGF9). The data set can be described thus: Dm aurora A kinase assay (DM Aur A / Dm AK-A). Type of data set: biochemical. The settings on record: in vitro kinase assay. On the procedure:
(§1) The compounds of the invention above were investigated for their ability to inhibit the enzymatic activity of various protein kinases. This was achieved by measurement of incorporation of radioactive phosphate from ATP into appropriate polypeptide substrates. Recombinant protein kinases and kinase complexes were produced or obtained commercially. Assays were performed using 96-well plates and appropriate assay buffers (typically 25 mM β-glycerophosphate, 20 mM MOPS, 5 mM EGTA, 1 mM DTT, 1 mM […], pH 7.4), into which were added 2-4 μg of active enzyme with appropriate substrates. The reactions were initiated by addition of Mg/ATP mix (15 mM MgCl2+100 μM ATP with 30-50 kBq per well of [γ-^32P]-ATP) and mixtures incubated as required at 30° C. Reactions were stopped on ice, followed by filtration through p81 filterplates or GF/C filterplates (Whatman Polyfiltronics, Kent, UK). After washing 3 times with 75 mM aq orthophosphoric acid, plates were dried, scintillant added and incorporated radioactivity measured in a scintillation counter (TopCount, Packard Instruments, Pangbourne, Berks, UK). Compounds for kinase assay were made up as 10 mM stocks in DMSO and diluted into 10% DMSO in assay buffer. Data was analysed using curve-fitting software (GraphPad Prism version 3.00 for Windows, GraphPad Software, San Diego Calif. USA) to determine IC50 values (concentration of test compound which inhibits kinase activity by 50%).
Take `Cc1c[nH]c(C)c1-c1ccnc(Nc2ccc(C#N)cc2)n1` [Compound 1]: the Ki is more than 10000 nM.
On the same count and under the same terms, next, `Cc1c[nH]c(C)c1-c1ccnc(Nc2cccc(C#N)c2)n1` [Compound 2]: more than 10000 nM.
In turn, `Cc1c[nH]c(C)c1-c1ccnc(Nc2ccc(N3CCOCC3)cc2)n1` [Compound 4] returned a Ki of 8 nM. In other words, the single-digit nanomolar range.
With `CCOC(=O)c1[nH]c(C)c(-c2ccnc(Nc3cccc(O)c3)n2)c1-c1ccccc1` [Compound 7], the affinity, expressed as Ki, was 423 nM. This Ki is about 53-fold higher than that of the molecule before.
The same measure, in the same setting: next, `CCOC(=O)c1[nH]c(C)c(-c2ccnc(Nc3cccc(F)c3)n2)c1-c1ccccc1` [Compound 8]: more than 10000 nM; `CCOC(=O)c1[nH]c(C)c(-c2ccnc(Nc3ccc(C(F)(F)F)cc3)n2)c1-c1ccccc1` [Compound 10]: more than 10000 nM; `Cc1ccc([N+](=O)[O-])cc1Nc1nccc(-c2c(C)[nH]c(C#N)c2C)n1` [Compound 27]: more than 10000 nM.
Same read-out and setting: with `COc1ccc(C)c(Nc2nccc(-c3c(C)[nH]c(C#N)c3C)n2)c1` [Compound 29] the figure was 2520 nM; with `CNc1ccc(Nc2nccc(-c3c(C)[nH]c(C#N)c3C)n2)cc1C(F)(F)F` [Compound 31], 49 nM.
As for `Cc1cc(Nc2nccc(-c3c(C)[nH]c(C#N)c3C)n2)cnc1Cl` [Compound 33], the affinity corresponds to a Ki of 666 nM.
Still for that read-out and setting: with `Cc1[nH]c(C#N)c(C)c1-c1ccnc(Nc2cccc(S(=O)(=O)NC(C)C)c2)n1` [Compound 34] the figure was 1300 nM; with `CCN(CC)CCNS(=O)(=O)c1ccc(Nc2nccc(-c3c(C)[nH]c(C#N)c3C)n2)cc1` [Compound 36], 307 nM.
The same measure, in the same setting: next, `COCCOC(=O)c1[nH]c(C)c(-c2ccnc(Nc3ccc(N4CCOCC4)cc3)n2)c1-c1ccccc1` [Compound 37]: 333 nM; `CC(=O)N1CCN(c2ccc(Nc3nccc(-c4c(C)[nH]c(C#N)c4C)n3)cn2)CC1` [Compound 38]: 69 nM; `CC(=O)N1CCN(c2ccc(Nc3nccc(-c4c(C)c(C#N)n(C)c4C)n3)cn2)CC1` [Compound 39]: 91 nM.
`Cc1[nH]c(C#N)c(C)c1-c1ccnc(Nc2ccc(N3CCN(Cc4ccccc4)CC3)cc2)n1` [Compound 40]: the affinity, expressed as Ki, was 108 nM.
For the molecule `CC(=O)N1CCN(c2ccc(Nc3nccc(-c4c(C)[nH]c(C#N)c4C)n3)cc2)CC1` [Compound 41], the Ki was 19 nM.

Still in this data set, the particulars now being: values without asterisk (DM aurora A).
`Cc1c[nH]c(C)c1-c1ccnc(Nc2ccc(C#N)cc2)n1` [Compound 1] yielded an IC50 not below 10000 nM.
Still for that read-out and setting: next, `Cc1c[nH]c(C)c1-c1ccnc(Nc2cccc(C#N)c2)n1` [Compound 2]: not below 10000 nM; `Cc1c[nH]c(C)c1-c1ccnc(Nc2ccc(N3CCOCC3)cc2)n1` [Compound 4]: 72 nM.
The same measure, in the same setting: with `CCOC(=O)c1[nH]c(C)c(-c2ccnc(Nc3cccc(F)c3)n2)c1-c1ccccc1` [Compound 8] the figure was not below 10000 nM.
The same measure, in the same setting: with `CCOC(=O)c1[nH]c(C)c(-c2ccnc(Nc3ccc(C(F)(F)F)cc3)n2)c1-c1ccccc1` [Compound 10] the figure was not below 10000 nM; with `Cc1ccc([N+](=O)[O-])cc1Nc1nccc(-c2c(C)[nH]c(C#N)c2C)n1` [Compound 27], not below 10000 nM.
With `COc1ccc(C)c(Nc2nccc(-c3c(C)[nH]c(C#N)c3C)n2)c1` [Compound 29], the IC50 stood at 6470 nM.
`CNc1ccc(Nc2nccc(-c3c(C)[nH]c(C#N)c3C)n2)cc1C(F)(F)F` [Compound 31] returned an IC50 of 125 nM.
Turning to `Cc1cc(Nc2nccc(-c3c(C)[nH]c(C#N)c3C)n2)cnc1Cl` [Compound 33], the midpoint of inhibition, the IC50, lay at 1700 nM.
Same read-out and setting: next, `Cc1[nH]c(C#N)c(C)c1-c1ccnc(Nc2cccc(S(=O)(=O)NC(C)C)c2)n1` [Compound 34]: 3320 nM; `CCN(CC)CCNS(=O)(=O)c1ccc(Nc2nccc(-c3c(C)[nH]c(C#N)c3C)n2)cc1` [Compound 36]: 786 nM.
In turn, `COCCOC(=O)c1[nH]c(C)c(-c2ccnc(Nc3ccc(N4CCOCC4)cc3)n2)c1-c1ccccc1` [Compound 37] yielded an IC50 of 853 nM.
The same measure, in the same setting: with `CC(=O)N1CCN(c2ccc(Nc3nccc(-c4c(C)[nH]c(C#N)c4C)n3)cn2)CC1` [Compound 38] the figure was 177 nM.
Same read-out and setting: next, `CC(=O)N1CCN(c2ccc(Nc3nccc(-c4c(C)c(C#N)n(C)c4C)n3)cn2)CC1` [Compound 39]: 234 nM; `Cc1[nH]c(C#N)c(C)c1-c1ccnc(Nc2ccc(N3CCN(Cc4ccccc4)CC3)cc2)n1` [Compound 40]: 276 nM.
Turning to `CC(=O)N1CCN(c2ccc(Nc3nccc(-c4c(C)[nH]c(C#N)c4C)n3)cc2)CC1` [Compound 41], the IC50 stood at 48 nM.

The target of the next data set is CDK2/E (Homo sapiens, UniProt P24941). The data set can be described thus: CDK2/E in vitro kinase assay. The data set is classed as biochemical.
Details: not given
The protocol: as §1
As for `Cc1c[nH]c(C)c1-c1ccnc(Nc2ccc(N3CCOCC3)cc2)n1` [Compound 4], affinity was put at a Ki of 1810 nM.
Regarding `Cc1ccc([N+](=O)[O-])cc1Nc1nccc(-c2c(C)[nH]c(C#N)c2C)n1` [Compound 27], the Ki is more than 10000 nM.
On the same count and under the same terms, with `COc1ccc(C)c(Nc2nccc(-c3c(C)[nH]c(C#N)c3C)n2)c1` [Compound 29] the figure was more than 10000 nM; with `CNc1ccc(Nc2nccc(-c3c(C)[nH]c(C#N)c3C)n2)cc1C(F)(F)F` [Compound 31], 119 nM.
`Cc1[nH]c(C#N)c(C)c1-c1ccnc(Nc2cccc(S(=O)(=O)NC(C)C)c2)n1` [Compound 34] displayed a Ki of 876 nM.
Still for that read-out and setting: next, `CCN(CC)CCNS(=O)(=O)c1ccc(Nc2nccc(-c3c(C)[nH]c(C#N)c3C)n2)cc1` [Compound 36]: 12 nM; `CC(=O)N1CCN(c2ccc(Nc3nccc(-c4c(C)[nH]c(C#N)c4C)n3)cn2)CC1` [Compound 38]: 310 nM; `CC(=O)N1CCN(c2ccc(Nc3nccc(-c4c(C)[nH]c(C#N)c4C)n3)cc2)CC1` [Compound 41]: 308 nM.

For the next data set, the target named is GSK3 (GSK-3β) (Oryctolagus cuniculus, UniProt A0A5F9DUX8). As to the kind of experiment: GSK-3 kinase assay. The data set is classed as biochemical, rabbit. Particulars: in vitro kinase assay. The protocol: GSK-3 was obtained from New England Biolabs (UK) Ltd., Hitchin, Herts. The recombinant enzyme was isolated from a strain of E. coli that carries a clone expressing GSK-3β derived from a rabbit skeletal muscle cDNA library [Wang, Q. M.; Fiol, C. J.; DePaoli-Roach, A. A.; Roach, P. J. J. Biol. Chem., 1994, 269, 14566]. Inhibition of GSK-3 function was assessed by measurement of phosphorylation of CREB phosphopeptide KRREILSRRPphosphoSYR in the presence of test compounds. Using a 96-well assay format, GSK3 (7.5 U) was incubated for 30 min at 30° C. in a total volume of 25 μL in 20 mM MOPS pH 7.2, 25 mM β-glycerophosphate, 5 mM EGTA, 1 mM DTT, 1 mM […], 40 μM CREB peptide, 15 mM MgCl2 and 100 μM ATP (containing 0.25 μCi [γ-^32P]-ATP) in the presence of varying concentrations of test compound. The samples were transferred to 96-well p81 filter plates (Whatman Polyfiltronics, Kent, UK), and the plates were washed 4 times with 200 μL/well of 75 mM aq orthophosphoric acid. Scintillation liquid (50 μL) was added to each well, and incorporated radioactivity for each sample was determined using a scintillation counter (TopCount, Packard Instruments, Pangboume, Berks, UK).
Chain of GSK3 (GSK-3β) (A0A5F9DUX8 entry or part of it): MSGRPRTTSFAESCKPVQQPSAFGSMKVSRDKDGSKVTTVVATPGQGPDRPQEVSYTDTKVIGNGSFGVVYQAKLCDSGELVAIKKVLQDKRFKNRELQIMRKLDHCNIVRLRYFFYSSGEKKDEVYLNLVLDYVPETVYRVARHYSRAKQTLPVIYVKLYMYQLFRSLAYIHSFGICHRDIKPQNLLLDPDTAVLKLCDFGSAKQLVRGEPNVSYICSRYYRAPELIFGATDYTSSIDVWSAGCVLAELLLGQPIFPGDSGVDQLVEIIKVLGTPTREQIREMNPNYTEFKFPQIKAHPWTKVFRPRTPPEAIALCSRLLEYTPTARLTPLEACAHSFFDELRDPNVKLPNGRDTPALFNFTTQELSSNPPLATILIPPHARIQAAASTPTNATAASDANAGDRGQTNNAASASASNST
The molecule `Cc1c[nH]c(C)c1-c1ccnc(Nc2ccc(C#N)cc2)n1` [Compound 1] registered a Ki of 601 nM. This lies in the sub-micromolar range.
On the same count and under the same terms, next, `Cc1c[nH]c(C)c1-c1ccnc(Nc2cccc(C#N)c2)n1` [Compound 2]: 3690 nM; `Cc1ccc([N+](=O)[O-])cc1Nc1nccc(-c2c(C)[nH]c(C#N)c2C)n1` [Compound 27]: 375 nM.
The same measure, in the same setting: with `COc1ccc(C)c(Nc2nccc(-c3c(C)[nH]c(C#N)c3C)n2)c1` [Compound 29] the figure was 731 nM; with `CNc1ccc(Nc2nccc(-c3c(C)[nH]c(C#N)c3C)n2)cc1C(F)(F)F` [Compound 31], 53 nM; with `Cc1cc(Nc2nccc(-c3c(C)[nH]c(C#N)c3C)n2)cnc1Cl` [Compound 33], 7 nM.
Still for that read-out and setting: next, `Cc1[nH]c(C#N)c(C)c1-c1ccnc(Nc2cccc(S(=O)(=O)NC(C)C)c2)n1` [Compound 34]: 5 nM; `CCN(CC)CCNS(=O)(=O)c1ccc(Nc2nccc(-c3c(C)[nH]c(C#N)c3C)n2)cc1` [Compound 36]: 14 nM.

Tested on in another data set: not given
Assay: not given
Details: not given
Consider `CCOC(=O)c1[nH]c(C)c(-c2ccnc(Nc3cccc(O)c3)n2)c1-c1ccccc1` [Compound 7], for which the melting point was 123.1 to 124.2 °C.
Still for that read-out and setting: next, `CCOC(=O)c1[nH]c(C)c(-c2ccnc(Nc3cccc(F)c3)n2)c1-c1ccccc1` [Compound 8]: 200 to 203 °C; `CCOC(=O)c1[nH]c(C)c(-c2ccnc(Nc3ccc(C(F)(F)F)cc3)n2)c1-c1ccccc1` [Compound 10]: 227 to 230 °C.
